Laboratory results as given in patent publication US10968203B2, “Pyrimidinyl-pyridyloxy-naphthyl compounds and methods of treating IRE1-related diseases and disorders” (Genentech, Inc., priority 2017, dated 2021).
“And” between values parts separate entries of the source, which are not always exact repeats. Equal entries are not always repeated. Structures can show the parent of a compound that is named as a salt.

test system: XBP1s-luc 293 LUC; test: cellular PD assay, XBP1s-LUC reporter (Example 903); assay type: cell-based; conditions: Table 1; read-out: XBP1s-luc 293 LUC (IC50)
In short: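 Cellular IRE1α pathway activity was quantified from the luciferase signal of an XBP1-Luc reporter, where the luciferase fusion is in frame and expressed only from the spliced XBP1 transcript.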

SMILES | IC50
Cc1ccc2c(N3CC[C@H](CF)C3=O)cccc2c1Oc1ncccc1-c1ccnc(N[C@H]2CCCNC2)n1 [Example 316, (S)-3-(Fluoromethyl)-1-(6-methyl-5-((3-(2-(((S)-piperidin-3-yl)amino)pyrimidin-4-yl)pyridin-2-yl)oxy)naphthalen-1-yl)pyrrolidin-2-one] | 0.213 µM
Cc1ccc2c(NC(=O)c3cccc(C(C)(C)C#N)c3)cccc2c1Oc1ncccc1-c1ccnc(N[C@H]2CCCNC2)n1 [Example 101, (S)-3-(2-Cyanopropan-2-yl)-N-(6-methyl-5-((3-(2-(piperidin-3-ylamino)pyrimidin-4-yl)pyridin-2-yl)oxy)naphthalen-1-yl)benzamide] | 0.102 µM
Cc1ccc2c(NC[C@H]3CC3(F)F)cccc2c1Oc1ncccc1-c1ccnc(N[C@H]2CCCNC2)n1 (single isomer, unassigned) [Example 342] | 0.121 µM
Cc1ccc2c(NS(=O)(=O)Cc3cscn3)cccc2c1Oc1ncccc1-c1ccnc(N[C@H]2CCCNC2)n1 [Example 156, (S)—N-(6-Methyl-5-((3-(2-(piperidin-3-ylamino)pyrimidin-4-yl)pyridin-2-yl)oxy)naphthalen-1-yl)-1-(thiazol-4-yl)methanesulfonamide] | 0.157 µM
Cc1ccc2c(NC(=O)CC3CCCCC3)c(F)ccc2c1Oc1ncccc1-c1ccnc(N[C@@H]2CNC[C@H](C)C2)n1 [Example 366, 2-Cyclohexyl-N-(2-fluoro-6-methyl-5-((3-(2-(((3S,5R)-5-methylpiperidin-3-yl)amino)pyrimidin-4-yl)pyridin-2-yl)oxy)naphthalen-1-yl)acetamide] | 0.101 µM
Cc1ccc2c(NC(=O)[C@@H]3C[C@@H]3C)cccc2c1Oc1ncccc1-c1ccnc(N[C@H]2CCCNC2)n1 (single isomer, unassigned) [Example 231] | 0.053 µM and 0.0333 µM
Cc1ccc2c(NS(=O)(=O)Cc3ccncc3)cccc2c1Oc1ncccc1-c1ccnc(N[C@H]2CCCNC2)n1 [Example 167, (S)—N-(6-Methyl-5-((3-(2-(piperidin-3-ylamino)pyrimidin-4-yl)pyridin-2-yl)oxy)naphthalen-1-yl)-1-(pyridin-4-yl)methanesulfonamide] | 0.019 µM
Cc1ccc2c(NC[C@@H]3CC3(F)F)cccc2c1Oc1ncccc1-c1ccnc(N[C@H]2CCCNC2)n1 (single isomer, unassigned) [Example 343] | 0.181 µM
Cc1ccc2c(NC(=O)[C@@H]3CCC(C)C3)cccc2c1Oc1ncccc1-c1ccnc(N[C@H]2CCCNC2)n1 (single isomer, unassigned) [Example 277] | 0.171 µM
Cc1ccc2c(NCc3cscn3)cccc2c1Oc1ncccc1-c1ccnc(N[C@H]2CCCNC2)n1 [Example 211, (S)-4-(2-((2-Methyl-5-((thiazol-4-ylmethyl)amino)naphthalen-1-yl)oxy)pyridin-3-yl)-N-(piperidin-3-yl)pyrimidin-2-amine] | 0.07 µM
Cc1ccc2c(NCc3ncsc3C)cccc2c1Oc1ncccc1-c1ccnc(N[C@H]2CCCNC2)n1 [Example 346, (S)-4-(2-((2-Methyl-5-(((5-methylthiazol-4-yl)methyl)amino)naphthalen-1-yl)oxy)pyridin-3-yl)-N-(piperidin-3-yl)pyrimidin-2-amine] | 0.136 µM
Cc1ccc2c(NC(=O)CC3(C)CCCC3)cccc2c1Oc1ncccc1-c1ccnc(N[C@H]2CCCNC2)n1 [Example 267, (S)—N-(6-Methyl-5-((3-(2-(piperidin-3-ylamino)pyrimidin-4-yl)pyridin-2-yl)oxy)naphthalen-1-yl)-2-(1-methylcyclopentyl)acetamide] | 0.162 µM
CO[C@H]1CNC[C@@H](Nc2nccc(-c3cccnc3Oc3c(C)ccc4c(NS(=O)(=O)Cc5ccccc5)cccc34)n2)C1 [Example 161, N-(5-((3-(2-(((3S,5R)-5-Methoxypiperidin-3-yl)amino)pyrimidin-4-yl)pyridin-2-yl)oxy)-6-methylnaphthalen-1-yl)-1-phenylmethanesulfonamide] | 0.046 µM
Cc1ccc2c(Nc3cc(C)n(C)n3)cccc2c1Oc1ncccc1-c1ccnc(N[C@H]2CCCNC2)n1 [Example 258, (S)-4-(2-((5-((1,5-Dimethyl-1H-pyrazol-3-yl)amino)-2-methylnaphthalen-1-yl)oxy)pyridin-3-yl)-N-(piperidin-3-yl)pyrimidin-2-amine] | 0.419 µM
Cc1ccc2c(N3C(=O)C4CCCC43)cccc2c1Oc1ncccc1-c1ccnc(N[C@H]2CCCNC2)n1 (single isomer, unassigned) [Example 248] | 0.457 µM
CCCS(=O)(=O)Nc1cccc2c(Oc3ncccc3-c3ccnc(N[C@H]4CCCNC4)n3)c(F)ccc12 [Example 305, (S)—N-(6-Fluoro-5-((3-(2-(piperidin-3-ylamino)pyrimidin-4-yl)pyridin-2-yl)oxy)naphthalen-1-yl)propane-1-sulfonamide] | 0.481 µM
CCCC(=O)Nc1cccc2c(Oc3ncccc3-c3ccnc(N[C@H]4CCCNC4)n3)c(C)ccc12 [Example 117, (S)—N-(6-Methyl-5-((3-(2-(piperidin-3-ylamino)pyrimidin-4-yl)pyridin-2-yl)oxy)naphthalen-1-yl)butyramide hydrochloride] | 0.145 µM
Cc1ccc2c(NC(=O)C3CC3C(C)C)cccc2c1Oc1ncccc1-c1ccnc(N[C@H]2CCCNC2)n1 (single isomer, unassigned) [Example 230] | 0.08 µM
Cc1nc(CNc2c(F)ccc3c(Oc4ncccc4-c4ccnc(N[C@H]5CCCNC5)n4)c(C)ccc23)cs1 [Example 371, (S)-4-(2-((6-Fluoro-2-methyl-5-(((2-methylthiazol-4-yl)methyl)amino)naphthalen-1-yl)oxy)pyridin-3-yl)-N-(piperidin-3-yl)pyrimidin-2-amine] | 0.381 µM
Cc1ccc2c(NC(=O)CC3CC3)cccc2c1Oc1ncccc1-c1ccnc(N[C@H]2CCCNC2)n1 [Example 191, (S)-2-Cyclopropyl-N-(6-methyl-5-((3-(2-(piperidin-3-ylamino)pyrimidin-4-yl)pyridin-2-yl)oxy)naphthalen-1-yl)acetamide] | 0.234 µM
Cc1ccc2c(NCC(C)C)cccc2c1Oc1ncccc1-c1ccnc(N[C@H]2CCCNC2)n1 [Example 349, (S)-4-(2-((5-(Isobutylamino)-2-methylnaphthalen-1-yl)oxy)pyridin-3-yl)-N-(piperidin-3-yl)pyrimidin-2-amine] | 0.432 µM
Cc1ccc2c(NCc3ccn(C)n3)cccc2c1Oc1ncccc1-c1ccnc(N[C@@H]2CNC[C@H](C)C2)n1 [Example 330, 4-(2-((2-Methyl-5-(((1-methyl-1H-pyrazol-3-yl)methyl)amino)naphthalen-1-yl)oxy)pyridin-3-yl)-N-((3S,5R)-5-methylpiperidin-3-yl)pyrimidin-2-amine] | 0.197 µM
Cc1ccc2c(NS(=O)(=O)N(C)C)c(F)ccc2c1Oc1ncccc1-c1ccnc(N[C@@H]2CNC[C@H](C)C2)n1 [Example 325, 4-[2-[[5-(Dimethylsulfamoylamino)-6-fluoro-2-methyl-1-naphthyl]oxy]-3-pyridyl]-2-[[(3S,5R)-5-methyl-3-piperidyl]amino]pyrimidine] | 0.035 µM
CC[C@H](O)CNc1cccc2c(Oc3ncccc3-c3ccnc(N[C@H]4CCCNC4)n3)c(C)ccc12 [Example 313, (S)-1-((6-Methyl-5-((3-(2-((S)-piperidin-3-ylamino)pyrimidin-4-yl)pyridin-2-yl)oxy)naphthalen-1-yl)amino)butan-2-ol] | 0.148 µM
Cc1ccc2c(N3CCCC(C)C3=O)cccc2c1Oc1ncccc1-c1ccnc(N[C@H]2CCCNC2)n1 (mixture of isomers) [Example 354, 3-Methyl-1-(6-methyl-5-((3-(2-((S)-piperidin-3-ylamino)pyrimidin-4-yl)pyridin-2-yl)oxy)naphthalen-1-yl)piperidin-2-one] | 0.318 µM
Cc1ccc2c(NC(=O)C3CC3C(C)C)cccc2c1Oc1ncccc1-c1ccnc(N[C@H]2CCCNC2)n1 (single isomer, unassigned) [Example 229] | 0.454 µM
CCC(C)C(=O)Nc1cccc2c(Oc3ncccc3-c3ccnc(N[C@H]4CCCNC4)n3)c(C)ccc12 (stereo partly drawn) [Example 182, 2-Methyl-N-(6-methyl-5-((3-(2-(((S)-piperidin-3-yl)amino)pyrimi-din-4-yl)pyridin-2-yl)oxy)naphthalen-1-yl)butanamide] | 0.154 µM

same assay, conditions: Table 2; read-out: XBP1s-luc 293 LUC (IC50)

SMILES | IC50 [µM]
Cc1ccc2c(NS(=O)(=O)Cc3ccccc3)cccc2c1Oc1ncccc1-c1ccnc(N[C@@H]2CNC[C@H](C)C2)n1 [Example 479, N-[6-Methyl-5-[[3-[2-[[(3S,5R)-5-methyl-3-piperidyl]amino]pyrimidin-4-yl]-2-pyridyl]oxy]-1-naphthyl]-1-phenyl-methanesulfonamide] | 0.012
Cc1ccc2c(NS(=O)(=O)C[C@@H]3CCC3(F)F)c(F)ccc2c1Oc1ncccc1-c1ccnc(N[C@H]2CCCNC2)n1 (single isomer, unassigned) [Example 470, hydrochloride] | 0.024
Cc1ccc2c(NC[C@H](O)C3CC3)cccc2c1Oc1ncccc1-c1ccnc(N[C@H]2CCCNC2)n1 (single isomer, unassigned) [Example 489, hydrochloride] | 0.132
Cc1ccc2c(NS(=O)(=O)c3cccc4c3ccn4C)c(F)ccc2c1Oc1ncccc1-c1ccnc(N[C@H]2CCCNC2)n1 [Example 458, N-[2-Fluoro-6-methyl-5-[[3-[2-[[(3S)-3-piperidyl]amino]pyrimidin-4-yl]-2-pyridyl]oxy]-1-naphthyl]-1-methyl-indole-4-sulfonamide] | 0.019
Cc1ccc2c(NS(=O)(=O)Cc3ccccc3C#N)c(F)ccc2c1Oc1ncccc1-c1ccnc(N[C@H]2CCCNC2)n1 [Example 434, (S)-1-(2-Cyanophenyl)-N-(2-fluoro-6-methyl-5-((3-(2-(piperidin-3-ylamino)pyrimidin-4-yl)pyridin-2-yl)oxy)naphthalen-1-yl)methanesulfonamide hydrochloride] | 0.006
Cc1ccc2c(NC(=O)C[C@@H](O)C(F)(F)F)cccc2c1Oc1ncccc1-c1ccnc(N[C@H]2CCCNC2)n1 (single isomer, unassigned) [Example 436] | 0.075
